From article PMC6326523, “A high-throughput screen to identify novel small molecule inhibitors of the Werner Syndrome Helicase-Nuclease (WRN)” (PLoS ONE, 2019)
Like-named read-outs stand apart in the source and are kept apart here.

Columns and labels:
[1] = molecular target: T1, GST-WRN500-946 helicase domain fragment (Homo sapiens, UniProt Q14191); experiment: High-throughput fluorometric helicase screen, PubChem AID 651768; assay type: biochemical; details: initial qHTS; 20 nM GST-WRN500-946; 100 nM FORKF; NA = Not Active; read-out: IC50 (μM) Assay ID 651768
T1 construct: made in house; host or cells: insect cells
Protocol: (§1) The structures of the members of this collection are available in the PubChem portal https://pubchem.ncbi.nlm.nih.gov/. For both the 350,000 small molecule collection and the LOPAC^1280 screens, 3 μL of GST-WRN500-946 or reaction buffer only were dispensed using a solenoid-valve nanoliter dispenser into a black 1536-well plate (Greiner). Twenty three nL of each serially diluted compound (0.08–50 μM for the LOPAC screen and 0.003–114 μM for the larger library screen) or control were added to each well using a Kalypsys pintool equipped with a 1536-pin array. Plates were incubated at room temperature for 15 min, followed by initiation of the reactions via the addition of 1 μL of substrate (100 nM FORKF and 2 mM ATP final concentrations). Plates were transferred to a ViewLux high-throughput CCD imager and fluorescence was measured in kinetic mode using an excitation filter of 525 nm and emission filter of 598 nm.
(§2) Zʹ factor, a measure for assay quality control was calculated using the formula Z′ = 1−(3σS^++3σS^−)∕|μS^+−μS^−| as described previously. In this formula, 3σS^+ represents 3 standard deviations from the mean of positive signals while 3σS^− represents 3 standard deviations from the mean of negative signals. μS^+ and μS^− represent the mean of positive signals and negative signals respectively. Percent activity was derived using in-house software (http://tripod.nih.gov/curvefit/). Dose-response curves were classified as described previously.
(§3) A collection of approximately 350,000 compounds is available for screening which has been assembled from multiple sources to provide diverse chemical scaffolds with known purity, identity and solubility. To perform the high-throughput screen of these compounds, we needed to produce approximately 50 milligrams of recombinant WRN helicase fragment. To accomplish this, we cloned the helicase domain fragment into several plasmids for either insect cell or bacterial expression to optimize expression and yield. We selected expression plasmids for insect cell expression with either a GST or MBP tag (image A in S1 Fig) and purified the protein (image B in S1 Fig). The GST-WRN500-946 fragment isolated from insect cells was used in the high throughput screen with the conditions described in Fig 2C (20 nM GST-WRN500-946, 100 nM FORKF DNA substrate) and a summary of the results can be found on PubChem (National Center for Biotechnology Information. PubChem BioAssay Database; Assay Identifier (AID) = 651768, https://pubchem.ncbi.nlm.nih.gov/bioassay/651768). […] To verify the active compounds, approximately 600 hit molecules were retested in a confirmatory screen also found on PubChem (National Center for Biotechnology Information. PubChem AID = 720497, https://pubchem.ncbi.nlm.nih.gov/bioassay/720497). Of these, a little less than four hundred compounds were confirmed as active compounds.

[2] = molecular target: T1, GST-WRN500-946 helicase domain fragment; experiment: Confirmatory fluorometric helicase screen, PubChem AID 720497; assay type: biochemical; details: 20 nM GST-WRN500-946, 100 nM FORKF, NA = Not Active, read-out: IC50 (μM) Assay ID 720497
Protocol: as §1, §2, §3

full-length WRN helicase [3] = molecular target: T2, full-length WRN helicase (Homo sapiens, UniProt Q14191); experiment: Radiometric helicase inhibitor reversibility assay (100-fold dilution); assay type: biochemical; set-up: key to Reversibility: (-) = irreversible; (+) = minimally reversible; (++) = partially reversible; (+++) = reversible; details: for Reversibility: WRN 100 nM preincubated at 10-fold IC50, diluted 100-fold, unwinding 0-16 min; for Reversibility of inhibition (in words): full-length WRN
T2 construct: Full length recombinant WRN [18], BLM [19], and FANCJ [20] proteins were purified from insect cells; made in house; host or cells: insect cells
Protocol: WRN (full length, 100 nM concentration) was incubated with each small molecule inhibitor at a concentration 10-fold higher than the IC50 for that inhibitor, in a 10 μL reaction at room temperature. 1.5 μL of this reaction was added to 148.5 μL of reaction salts with 2 mM ATP, 0.5 nM FORKR reducing the full length WRN concentration to 1 nM and the drug concentration to 10-fold less than its IC50. Reactions were placed at 37°C and 20 μL of reaction were removed at specific intervals (0–16 min) and quenched with 20 μL of 2X STOP dye containing EDTA, glycerol, bromphenol blue and xylene cyanol. Samples were electrophoresed for 1.5 hr at 200 V on a 12% non-denaturing PAGE gel in 1X TBE Buffer.
Eighteen compounds were selected based on potency of inhibition in both the screening and radiometric assays, and exclusion of compounds with undesired chemical features. For each compound, we performed titrations over a wide range of concentrations with a fixed concentration of full-length WRN protein (1 nM), and quantitated unwinding as a percentage of full-length WRN unwinding of the FORKR DNA substrate (0.5 nM) in the absence of compound (Fig 6A and 6B, S3 Fig). […] In addition to determining an IC50 value for each compound, we also conducted helicase assays to determine the reversibility of inhibition by each compound tested. Details of the assay can be found in the Materials and Methods section, but briefly 100 nM WRN was incubated with each compound at a concentration 10-fold higher than its IC50 value. The reaction was diluted 100-fold with the addition of DNA substrate (0.5 nM final concentration) and ATP (2 mM final concentration) and unwinding was measured (Fig 7A–7D, S4 Fig). Inhibition was either classified as reversible, partially reversible, minimally reversible, or irreversible based on the ability of helicase activity to recover after dilution of the compound 100-fold. Table 2 summarizes the IC50 values and reversibility for each compound and includes IC50 values obtained from the screens for comparison.

[4] = molecular target: T3, WRN helicase domain fragment (Homo sapiens, UniProt Q14191); experiment: WRN-hel-f2 protocol qHTS confirmatory (15 compound confirmatory assay); assay type: biochemical; details: NA = Not Active
T3 construct: GST (N); made in house
Protocol: as §1

full-length WRN helicase [5] = molecular target: T2, full-length WRN helicase; experiment: Radiometric helicase inhibitor assay, full-length WRN unwinding of FORKR DNA substrate; assay type: biochemical; details: for remaining activity at 50 µM: read-out: % Control WRN Helicase Activity; for IC50: radiometric assay, compound 0-100 μM, read-out: IC50;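 on all read-outs here: WRN preincubated with compound 15 min at room temperature, then unwinding run 15 min at 37 °C with 2 mM ATP, relative to WRN unwinding without compound (100%)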
Protocol: Fifteen μL of reaction buffer was added to a microcentrifuge tube followed by the addition of 1 μL of selected compounds (0.5–100 μM final concentration) or DMSO. One μL of WRN (full length), RECQ1, FANCJ, BLM or control was added to each reaction and incubated at room temperature for 15 min. Three μL of substrate (0.5 nM FORKR and 2 mM ATP final concentrations) were added to all reactions which were incubated at 37°C for 15 min. Reactions were stopped with the addition of 20 μL of 2X STOP dye containing EDTA, glycerol, bromphenol blue and xylene cyanol. Samples were electrophoresed for 1.5 hr at 200 V on a 12% non-denaturing PAGE gel in 1X TBE Buffer.
The compounds were tested at a single concentration of 50 μM in the radiometric helicase assay with full-length recombinant WRN protein (1 nM) and the FORKR DNA substrate (0.5 nM) as described in the Materials and Methods section.
For each compound, we performed titrations over a wide range of concentrations with a fixed concentration of full-length WRN protein (1 nM), and quantitated unwinding as a percentage of full-length WRN unwinding of the FORKR DNA substrate (0.5 nM) in the absence of compound (Fig 6A and 6B, S3 Fig). […] In addition to determining an IC50 value for each compound, we also conducted helicase assays to determine the reversibility of inhibition by each compound tested. […] The reaction was diluted 100-fold with the addition of DNA substrate (0.5 nM final concentration) and ATP (2 mM final concentration) and unwinding was measured (Fig 7A–7D, S4 Fig). Inhibition was either classified as reversible, partially reversible, minimally reversible, or irreversible based on the ability of helicase activity to recover after dilution of the compound 100-fold.

[6] = molecular target: T4, GST-WRN500-946 helicase fragment (Homo sapiens, UniProt Q14191); experiment: Radiometric helicase assay with GST-WRN500-946 fragment (LOPAC hit validation); assay type: biochemical; details: GST-WRN500-946 20 nM; FORKR 0.5 nM; increasing concentrations
T4 construct: made in house

HeLa 1.2.11 cells = experiment: HeLa cell proliferation assay (WST-1); assay type: cell-based, human; details: 50 μM, 3-day time course
Protocol: WRN inhibitors were diluted in DMSO to a concentration 100-fold higher than their final concentrations. U2-OS cells in culture were counted, spun down and resuspended to 35,000 cells/mL in DMEM with 10% FBS and Pen/Strep antibiotic. For each cell condition, 15 μL of DMSO or inhibitor was added to 1.5 ml of U2-OS cells in DMEM or DMEM alone. One hundred μL of each cell condition was plated in triplicate on each of four 96-well plates representing days 0–3. Ten μL of WST-1 cell proliferation reagent (Roche) was added to the day 0 plate and readings were taken 2 hr later using a plate reader set to 450 nm. WST-1 cell proliferation reagent was added to plates on days 1–3 and readings were taken after 2 hr incubation. Percent cell proliferation was normalized to cells in the presence of DMSO with the background OD450 of DMEM with each drug subtracted out. […]
Fig 9 Effects of WRN helicase inhibitors on cancer cell proliferation. (A) Cell proliferation of HeLa 1.2.11 cells treated with 50 μM NCGC00029283-03, NCGC00063279-03, NCGC00357377-01 and NSC 617145 (positive control) or vehicle (DMSO) on Day 0 and Day 3 as measured using the WST-1 cell proliferation reagent. […]

[7] = 50 μM compound, full-length WRN 1 nM, FORKR 0.5 nM
[8] = full-length WRN 1 nM, FORKR 0.5 nM

T1 sequence (Q14191 500-946): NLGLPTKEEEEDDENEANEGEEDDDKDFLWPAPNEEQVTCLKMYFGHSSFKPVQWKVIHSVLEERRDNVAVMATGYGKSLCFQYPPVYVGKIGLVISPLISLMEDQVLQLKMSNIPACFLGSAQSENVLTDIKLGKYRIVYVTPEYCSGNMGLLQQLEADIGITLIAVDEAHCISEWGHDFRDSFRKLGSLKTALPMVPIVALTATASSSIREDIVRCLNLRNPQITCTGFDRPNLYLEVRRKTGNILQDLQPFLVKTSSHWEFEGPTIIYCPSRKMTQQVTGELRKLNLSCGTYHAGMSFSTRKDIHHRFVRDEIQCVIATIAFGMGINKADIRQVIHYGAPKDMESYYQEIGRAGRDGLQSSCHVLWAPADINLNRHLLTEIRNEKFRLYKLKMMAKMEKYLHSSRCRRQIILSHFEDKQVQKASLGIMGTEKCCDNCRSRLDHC
T3 sequence (Q14191 500-946): as above
T2 sequence (Q14191 whole entry): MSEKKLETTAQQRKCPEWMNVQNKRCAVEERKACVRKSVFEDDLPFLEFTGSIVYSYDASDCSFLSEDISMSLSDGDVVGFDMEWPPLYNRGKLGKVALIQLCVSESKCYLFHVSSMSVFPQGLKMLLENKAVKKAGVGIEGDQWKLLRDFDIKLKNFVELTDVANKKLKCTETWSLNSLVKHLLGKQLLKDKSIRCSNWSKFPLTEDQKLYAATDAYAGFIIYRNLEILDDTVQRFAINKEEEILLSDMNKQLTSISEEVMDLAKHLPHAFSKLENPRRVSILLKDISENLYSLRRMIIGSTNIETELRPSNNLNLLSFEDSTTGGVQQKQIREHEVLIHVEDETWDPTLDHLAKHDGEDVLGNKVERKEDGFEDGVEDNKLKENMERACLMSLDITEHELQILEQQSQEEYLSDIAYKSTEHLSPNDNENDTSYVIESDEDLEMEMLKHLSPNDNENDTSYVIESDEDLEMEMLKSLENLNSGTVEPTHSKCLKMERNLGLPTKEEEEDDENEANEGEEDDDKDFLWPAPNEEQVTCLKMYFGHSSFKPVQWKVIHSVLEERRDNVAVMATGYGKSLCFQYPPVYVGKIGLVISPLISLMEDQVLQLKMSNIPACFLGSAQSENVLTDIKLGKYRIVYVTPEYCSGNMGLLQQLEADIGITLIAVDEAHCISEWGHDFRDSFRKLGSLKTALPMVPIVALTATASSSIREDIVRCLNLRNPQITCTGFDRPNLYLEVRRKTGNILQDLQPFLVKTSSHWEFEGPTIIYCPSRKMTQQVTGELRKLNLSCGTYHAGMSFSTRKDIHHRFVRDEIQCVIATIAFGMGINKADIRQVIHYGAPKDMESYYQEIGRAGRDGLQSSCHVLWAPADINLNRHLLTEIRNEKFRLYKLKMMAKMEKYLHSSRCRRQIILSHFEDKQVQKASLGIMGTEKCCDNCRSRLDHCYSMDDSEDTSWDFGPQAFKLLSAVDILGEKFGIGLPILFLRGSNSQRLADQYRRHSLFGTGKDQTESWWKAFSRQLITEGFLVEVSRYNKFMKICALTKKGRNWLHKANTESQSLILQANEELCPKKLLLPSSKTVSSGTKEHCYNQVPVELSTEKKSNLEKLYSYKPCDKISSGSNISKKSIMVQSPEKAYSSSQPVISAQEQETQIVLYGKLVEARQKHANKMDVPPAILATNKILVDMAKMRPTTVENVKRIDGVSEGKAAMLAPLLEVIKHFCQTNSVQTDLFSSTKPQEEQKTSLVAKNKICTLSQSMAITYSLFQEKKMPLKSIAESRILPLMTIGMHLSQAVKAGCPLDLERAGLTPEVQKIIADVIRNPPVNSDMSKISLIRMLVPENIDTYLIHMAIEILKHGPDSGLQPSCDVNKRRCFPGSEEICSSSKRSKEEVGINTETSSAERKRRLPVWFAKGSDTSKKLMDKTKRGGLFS
T4 sequence (Q14191 500-946): as the sequence (Q14191 500-946) above

SMILES | IC50 [1] [µM] | IC50 [2] [µM] | Reversibility (full-length WRN helicase [3]) | IC50 [4] [µM] | remaining activity at 50 µM (full-length WRN helicase [5]; [7]) [%] | IC50 (full-length WRN helicase [5]; [8]) [µM] | Inhibition of GST-WRN500-946 unwinding of radiolabeled FORKR [6] | Reversibility of inhibition (in words) (full-length WRN helicase [3]) | remaining activity at 50 µM (full-length WRN helicase [5]) [%] | Effect on HeLa 1.2.11 cell proliferation (HeLa 1.2.11 cells)
O=C(c1cccc(-n2cccc2)c1)N1CCN(S(=O)(=O)c2ccccc2)CC1 [MLS001139594-03] | 4.7 | 4.3 | - | 0.35 | 4 | 10 |  |  |  | 
Cc1ccc(CN(C)C(=O)CCc2nc(O)c3c4c(sc3n2)CCCC4)o1 [MLS001160745-02] | 44.6 | 9.6 | + | 22.4 | 8 | 11 |  |  |  | 
COc1ccccc1Nc1ccc2c(O)cc(S(=O)(=O)O)cc2c1 [MLS002608028-02] | 2.7 | 6.1 | +++ | 0.35 | 3 | 2 |  |  |  | 
N#CSc1ccc2oc(C3=NCCN3)cc2c1 [NCGC00015168-04] |  |  |  |  |  |  | inhibition |  |  | 
COC(=O)c1cc(NC(=O)c2ccc3c(c2)NC(=O)c2ccccc2S3)cc(C(=O)OC)c1 [NCGC00113056-02] | 16.8 | 13.6 | + | 1.26 | 10 | 2 |  |  |  | 
Cc1ccc(C(=O)Nc2nnc([S+](=O)([O-])N(C)Cc3ccco3)s2)cc1 [NCGC00120906-02] | 37.6 |  | - | 5.6 |  | 9 |  | irreversible | 33 | 
CN(Cc1ccco1)[S+](=O)([O-])c1nnc(NC(=O)c2cccc(Cl)c2)s1 [NCGC00120928-02] | 39.8 |  | - | 12.5 | 13 | 15 |  | irreversible |  | 
CCc1ccc(NC(=O)c2ccc3c(O)c([S+](=O)([O-])c4ccc(Cl)cc4)c(=O)[nH]c3c2)cc1 [NCGC00123016-02] | 26.6 |  | +++ | 39.8 |  | 50 |  |  | 20 | 
CC(C)(C)c1ccc(-c2nc(SCCCOc3ccccc3)n3[nH]c(=O)cc3n2)cc1 [NCGC00128735-02] | 50.1 |  | +++ | 28.1 | 5 | 5 |  |  |  | 
CCOc1ccc(-c2nc(SCC(=O)Nc3ccc(C)c(C)c3)n3[nH]c(=O)cc3n2)cc1 [NCGC00128865-02] | 21.1 | 15.2 | ++ | 1.8 | 20 | 10 |  |  |  | 
Cc1ccc(-c2nc(SCc3ccc(Br)cc3)n3[nH]c(=O)cc3n2)cc1 [NCGC00129037-02] | 16.8 | 13.6 | - | 12.5 | 7 | 9 |  |  |  | 
CC1=C(C(=O)Nc2ccccc2)C(c2ccc[nH]2)n2ncnc2N1 (centres unmarked) [NCGC00132363-04] | 11.9 | 7.6 | - |  | 30 | 25 |  |  |  | 
O=c1cc(N2CCNCC2)nc2sc(-c3ccncc3)nn12 [NCGC00183602-01] | 7.5 | 6.1 | - | 6 | 0 | 5 |  |  |  | 
COc1cc2nc(N3CCCN(C)CC3)nc(NC3CCN(Cc4ccccc4)CC3)c2cc1OC [NCGC00185850-03] |  |  |  |  |  |  | inhibition |  |  | 
Cc1ccc(N2CCN(c3cnn(-c4nc5ccccc5s4)c(=O)c3Cl)CC2C)cc1 (centres unmarked) [NCGC00295201-02] | 35.4 |  | +++ | 25.1 | 9 | 10 |  |  |  | 
CC(C)(CN1C(=O)C(Cl)=C(Cl)C1=O)CN1C(=O)C(Cl)=C(Cl)C1=O [NSC 617145, reference compound] |  |  |  |  |  |  |  |  |  | very potent inhibition
